Experimental data: patent US20230192700A1, “PYRAZOLOPYRAZINES ACTING ON CANCERS VIA INHIBITION OF CDK12” (Bayer Aktiengesellschaft, priority 2020, published 2023)

Columns and labels:
CDK9/CyclinT1 = target: T1, CDK9/CyclinT1 (Homo sapiens, UniProt P50750); assay: CDK9/CycT1 high ATP kinase assay (TR-FRET); type: biochemical; conditions: 2 mM ATP (high ATP); median; read-out: CDK9/CyclinT1, 2 mM ATP (high ATP) IC50 - [mol/l] (median)
T1 construct: Recombinant full-length His-tagged human CDK9 and CycT1; His-tag; purchased Life Technologies PV4131; host or cells: insect cells
T1 sequence (P50750 whole entry): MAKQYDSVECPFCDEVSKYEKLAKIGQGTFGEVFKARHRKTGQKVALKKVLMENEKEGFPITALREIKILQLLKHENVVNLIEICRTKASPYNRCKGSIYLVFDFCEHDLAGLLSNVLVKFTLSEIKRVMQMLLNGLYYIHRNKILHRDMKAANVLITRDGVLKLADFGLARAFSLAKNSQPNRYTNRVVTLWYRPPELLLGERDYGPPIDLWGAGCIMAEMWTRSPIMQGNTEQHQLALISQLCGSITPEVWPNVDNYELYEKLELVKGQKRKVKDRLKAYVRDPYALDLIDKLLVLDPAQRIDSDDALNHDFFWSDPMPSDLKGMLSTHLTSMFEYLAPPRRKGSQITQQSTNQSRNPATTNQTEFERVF
T1 sequence (O60563 whole entry partner): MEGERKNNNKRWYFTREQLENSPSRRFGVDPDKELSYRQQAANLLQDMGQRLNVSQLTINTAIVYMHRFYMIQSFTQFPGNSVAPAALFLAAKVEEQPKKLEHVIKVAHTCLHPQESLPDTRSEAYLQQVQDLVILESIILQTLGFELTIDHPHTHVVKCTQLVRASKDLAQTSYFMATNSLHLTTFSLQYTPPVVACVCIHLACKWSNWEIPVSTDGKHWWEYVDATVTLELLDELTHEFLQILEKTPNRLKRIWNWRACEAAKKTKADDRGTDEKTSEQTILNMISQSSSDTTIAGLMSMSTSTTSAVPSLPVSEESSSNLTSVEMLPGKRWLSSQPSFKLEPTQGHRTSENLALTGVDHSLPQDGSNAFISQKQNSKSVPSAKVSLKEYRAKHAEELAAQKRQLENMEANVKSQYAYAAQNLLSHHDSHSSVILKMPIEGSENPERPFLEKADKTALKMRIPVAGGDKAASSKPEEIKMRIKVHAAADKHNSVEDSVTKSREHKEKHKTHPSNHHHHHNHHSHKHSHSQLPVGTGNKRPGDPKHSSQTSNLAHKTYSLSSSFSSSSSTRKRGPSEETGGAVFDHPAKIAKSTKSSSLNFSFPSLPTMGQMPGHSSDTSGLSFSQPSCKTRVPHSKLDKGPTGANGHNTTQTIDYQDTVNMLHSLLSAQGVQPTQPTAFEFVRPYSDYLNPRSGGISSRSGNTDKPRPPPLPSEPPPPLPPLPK
Description: 2.5 CDK9/CycT1 High ATP Kinase Assay
CDK9/CycT1 -inhibitory activity of compounds of the present invention at a high ATP concentration after preincubation of enzyme and test compounds was quantified employing the CDK9/CycT1 TR-FRET assay as described in the following paragraphs.
Recombinant full-length His-tagged human CDK9 and CycT1, expressed in insect cells and purified by Ni-NTA affinity chromatography, were purchased from Life Technologies (Cat. No PV4131). As substrate for the kinase reaction biotinylated peptide biotin-Ttds-YISPLKSPYKISEG (C-terminus in amide form) was used which can be purchased e.g. form the company JERINI peptide technologies (Berlin, Germany).
For the assay 50 nanoL of a 100 fold concentrated solution of the test compound in DMSO was pipetted into either a black low volume 384 well microtiter plate or a black 1536 well microtiter plate (both Greiner Bio-One, Frickenhausen, Germany), 2 microL of a solution of CDK9/CycT1 in aqueous assay buffer [50 millimol/L Tris/HCl pH 8.0, 10 millimol/L MgCl2, 1.0 millimol/L dithiothreitol, 0.1 millimol/L sodium ortho-vanadate, 0.01% (v/v) Nonidet-P40 (Sigma)] were added and the mixture was incubated for 15 min at 22° C. to allow pre-binding of the test compounds to the enzyme before the start of the kinase reaction. Then the kinase reaction was started by the addition of 3 microL of a solution of adenosine-tri-phosphate (ATP, 3.3 millimol/L=>final conc. in the 5 microL assay volume is 2 millimol/L) and substrate (1.25 micromol/L =>final conc. in the 5 microL assay volume is 0.75 micromol/L) in assay buffer and the resulting mixture was incubated for a reaction time of 25 min at 22° C. The concentration of CDK9/CycT1 was adjusted depending of the activity of the enzyme lot and was chosen appropriate to have the assay in the linear range, typical concentrations were in the range of 0.5 microg/mL. The reaction was stopped by the addition of 3 microL of a solution of TR-FRET detection reagents (0.33 micromol/L streptavidine-XL665 [Cisbio Bioassays, Codolet, France] and 1.67 nanomol/L anti-RB(pSer807/pSer811)-antibody from BD Pharmingen [#558389] and 2 nanomol/L LANCE EU-W1024 labeled anti-mouse IgG antibody [Perkin-Elmer, product no. AD0077]) in an aqueous EDTA-solution (167 millimol/L EDTA, 0.2% (w/v) bovine serum albumin in 100 millimol/L HEPES pH 7.5).
The resulting mixture was incubated 1 h at 22° C. to allow the formation of complex between the phosphorylated biotinylated peptide and the detection reagents. Subsequently the amount of phosphorylated substrate was evaluated by measurement of the resonance energy transfer from the Eu-chelate to the streptavidine-XL. Therefore, the fluorescence emissions at 620 nm and 665 nm after excitation at 350 nm was measured in a TR-FRET reader, e.g. a Pherastar (BMG Labtechnologies, Offenburg, Germany) or a Viewlux (Perkin-Elmer). The ratio of the emissions at 665 nm and at […] was taken as the measure for the amount of phosphorylated substrate. The data were normalised (enzyme reaction without inhibitor=0% inhibition, all other assay components but no enzyme=100% inhibition).

CDK12 = target: T2, CDK12 (Homo sapiens, UniProt Q9NYV4); assay: CDK12 nuclear protein level: immunofluorescence/high content analysis in CAL-120 cells; type: cell-based; conditions: for DC50: CAL-120 cells, 24 h, nuclear CDK12 staining intensity, median, read-out: CDK12 degradation IF DC50 - [mol/l] (median); for (IC50 CDK12 high ATP) to (Degradation DC50 CDK12) ratio: ratio of IC50 CDK12 hATP (2 mM ATP) to DC50 CDK12 (IF, CAL-120)
T2 construct: endogenous in cells; host or cells: CAL-120 human breast cancer cells (DSMZ ACC 459)
T2 sequence (Q9NYV4 whole entry): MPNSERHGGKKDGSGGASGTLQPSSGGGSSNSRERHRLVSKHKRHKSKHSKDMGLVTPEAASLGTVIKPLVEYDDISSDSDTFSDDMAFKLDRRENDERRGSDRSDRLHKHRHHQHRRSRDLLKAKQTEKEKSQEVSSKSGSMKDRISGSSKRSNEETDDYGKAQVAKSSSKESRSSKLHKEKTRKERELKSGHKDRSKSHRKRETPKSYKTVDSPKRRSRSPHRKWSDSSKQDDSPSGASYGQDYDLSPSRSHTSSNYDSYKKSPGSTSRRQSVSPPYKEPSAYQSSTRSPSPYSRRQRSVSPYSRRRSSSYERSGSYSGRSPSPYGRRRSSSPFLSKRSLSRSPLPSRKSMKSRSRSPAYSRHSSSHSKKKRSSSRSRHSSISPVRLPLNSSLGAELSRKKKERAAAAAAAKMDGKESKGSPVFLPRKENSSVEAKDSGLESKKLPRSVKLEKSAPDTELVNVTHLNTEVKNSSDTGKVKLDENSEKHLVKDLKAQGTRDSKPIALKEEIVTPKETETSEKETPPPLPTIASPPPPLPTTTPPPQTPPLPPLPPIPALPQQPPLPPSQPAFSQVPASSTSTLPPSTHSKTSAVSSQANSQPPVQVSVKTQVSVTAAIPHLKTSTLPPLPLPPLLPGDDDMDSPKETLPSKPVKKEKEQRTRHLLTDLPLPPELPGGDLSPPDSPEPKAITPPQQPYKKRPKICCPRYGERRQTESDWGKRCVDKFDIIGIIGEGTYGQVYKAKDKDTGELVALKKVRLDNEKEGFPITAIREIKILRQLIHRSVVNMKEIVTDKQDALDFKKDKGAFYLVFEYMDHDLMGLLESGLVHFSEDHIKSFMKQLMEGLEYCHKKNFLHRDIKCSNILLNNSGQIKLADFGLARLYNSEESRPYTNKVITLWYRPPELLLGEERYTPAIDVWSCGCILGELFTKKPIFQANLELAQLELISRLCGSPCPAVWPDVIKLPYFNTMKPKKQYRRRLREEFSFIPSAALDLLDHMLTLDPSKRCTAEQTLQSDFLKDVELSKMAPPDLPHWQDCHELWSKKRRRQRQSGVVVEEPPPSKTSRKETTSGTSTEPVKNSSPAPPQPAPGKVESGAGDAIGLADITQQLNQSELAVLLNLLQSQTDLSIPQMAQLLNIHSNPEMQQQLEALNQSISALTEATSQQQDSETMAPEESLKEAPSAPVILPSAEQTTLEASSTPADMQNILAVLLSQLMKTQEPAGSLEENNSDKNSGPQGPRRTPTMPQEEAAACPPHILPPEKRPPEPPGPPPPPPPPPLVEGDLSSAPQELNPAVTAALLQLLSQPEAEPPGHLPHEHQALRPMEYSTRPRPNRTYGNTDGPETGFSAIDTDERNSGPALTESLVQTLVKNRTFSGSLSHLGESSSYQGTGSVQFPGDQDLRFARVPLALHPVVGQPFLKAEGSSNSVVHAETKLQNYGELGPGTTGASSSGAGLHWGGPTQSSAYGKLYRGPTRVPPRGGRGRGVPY
T2 sequence (O75909 whole entry partner): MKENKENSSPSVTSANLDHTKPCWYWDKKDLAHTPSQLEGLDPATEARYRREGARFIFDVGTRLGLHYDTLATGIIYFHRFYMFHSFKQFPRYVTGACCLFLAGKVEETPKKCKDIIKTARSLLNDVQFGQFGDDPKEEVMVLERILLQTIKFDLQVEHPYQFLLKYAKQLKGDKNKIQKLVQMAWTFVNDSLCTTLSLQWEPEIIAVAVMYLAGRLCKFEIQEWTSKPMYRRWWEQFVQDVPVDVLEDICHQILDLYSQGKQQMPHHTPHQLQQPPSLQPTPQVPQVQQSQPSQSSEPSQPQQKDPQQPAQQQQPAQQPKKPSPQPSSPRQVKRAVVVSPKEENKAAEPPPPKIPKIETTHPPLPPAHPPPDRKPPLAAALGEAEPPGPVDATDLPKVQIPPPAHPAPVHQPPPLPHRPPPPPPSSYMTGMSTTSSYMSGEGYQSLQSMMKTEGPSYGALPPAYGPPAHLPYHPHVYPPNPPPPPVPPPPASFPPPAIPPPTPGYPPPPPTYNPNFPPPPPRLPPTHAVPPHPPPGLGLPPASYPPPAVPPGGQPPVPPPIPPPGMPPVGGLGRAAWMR
Description: 6. CDK12 Nuclear Protein Level: Immunofluorescence/High Content Analysis
In the context of the present invention, the term “DC50 CDK12” refers to the DC50 values obtained according to the assay described in this section (6) herein below, i.e. the DC50 values for the degradation of CDK12.:
CAL-120 human breast cancer cells (DSMZ ACC 459) are seeded in 1536-well microtiter plates (800 cells per well) containing 50 nanoL of compounds in Dose-Response. Control wells received DMSO or Reference Example 1. Plates are then incubated for 24 h at 37° C. in an humidified incubator and fixed with 4% PFA for 10 min. Then immunofluorescence (IF) against CDK12 (CellSignalling CDK12 Antibody #11973, rabbit, 1:100 dilution) is performed using standard IF protocols. Cells are then stained with Hoechst 33342 (Life Technologies, H-1399, 0.1 microg/mL) and imaged on an automated confocal microscopy system (e.g. Perkin Elmer Opera Phenix). Nuclear and cytoplasmic intensity as well as the nuclear/cytoplasmic intensity ratio is determined by automated image analysis using custom generated scripts (MetaXpress). Data is then transferred to Genedata Screener software, normalized to DMSO and control and DC50 values (degrading concentration to achieve 50% reduction of nuclear CDK12 staining intensity relative to controls) are reported.

Structure (SMILES) | IC50 (CDK9/CyclinT1) | DC50 (CDK12) | (IC50 CDK12 high ATP) to (Degradation DC50 CDK12) ratio (CDK12)
COCCC(C)n1nc(NCc2nc3ccccc3[nH]2)c2ncc(C3CC3)nc21 (racemic) [Example 57, (±)-N-[(1H-benzimidazol-2-yl)methyl]-6-cyclopropyl-1-(4-methoxybutan-2-yl)-1H-pyrazolo[3,4-b]pyrazin-3-amine] | > 20000 nM | 170 nM | >118
COCCCn1nc(NCc2nc3ccccc3[nH]2)c2ncc(C3CC3)nc21 [Example 61, N-[(1H-benzimidazol-2-yl)methyl]-6-cyclopropyl-1-(3-methoxypropyl)-1H-pyrazolo[3,4-b]pyrazin-3-amine] | > 20000 nM | 163 nM | >123
Cc1cccc2[nH]c(CNc3nn(C4CCOCC4)c4nc(C5CC5)cnc34)nc12 [Example 33, 6-cyclopropyl-N-[(4-methyl-1H-benzimidazol-2-yl)methyl]-1-(oxan-4-yl)-1H-pyrazolo[3,4-b]pyrazin-3-amine] | > 20000 nM | 8.65 nM | >2312
CN1CCCC(n2nc(NCc3nc4ccccc4[nH]3)c3ncc(C4CC4)nc32)CC1 (racemic) [Example 34, (±)-N-[(1H-benzimidazol-2-yl)methyl]-6-cyclopropyl-1-(1-methylazepan-4-yl)-1H-pyrazolo[3,4-b]pyrazin-3-amine] | > 20000 nM | 14.2 nM | 
CN1CCC(n2nc(NCc3nc4ccccc4[nH]3)c3ncc(C4CC4)nc32)C1 (single isomer, unassigned) [Example 78, (+) or (−)-N-[(1H-benzimidazol-2-yl)methyl]-6-cyclopropyl-1-(1-methylpyrrolidin-3-yl)-1H-pyrazolo[3,4-b]pyrazin-3-amine] | > 20000 nM | 33.6 nM | >596
CN1CCC(n2nc(NCc3nc4c(F)c(F)ccc4[nH]3)c3ncc(C4CC4)nc32)CC1 [Example 9, 6-cyclopropyl-N-[(4,5-difluoro-1H-benzimidazol-2-yl)methyl]-1-(1-methylpiperidin-4-yl)-1H-pyrazolo[3,4-b]pyrazin-3-amine] | > 20000 nM | 8.07 nM | >2478
CN1CCC(n2nc(NCc3nc4cc(Cl)ccc4[nH]3)c3ncc(C4CC4)nc32)CC1 [Example 22, N-[(5-chloro-1H-benzimidazol-2-yl)methyl]-6-cyclopropyl-1-(1-methylpiperidin-4-yl)-1H-pyrazolo[3,4-b]pyrazin-3-amine] | > 20000 nM | 11.8 nM | >1695
CN1CCC(n2nc(NCc3nc4c(Br)cccc4[nH]3)c3ncc(C4CC4)nc32)CC1 [Example 20, N-[(4-bromo-1H-benzimidazol-2-yl)methyl]-6-cyclopropyl-1-(1-methylpiperidin-4-yl)-1H-pyrazolo[3,4-b]pyrazin-3-amine] | > 20000 nM | 22.2 nM | >1050
CN1CCC(n2nc(NCc3nc4c(Cl)c(F)ccc4[nH]3)c3ncc(C4CC4)nc32)CC1 [Example 31, N-[(4-chloro-5-fluoro-1H-benzimidazol-2-yl)methyl]-6-cyclopropyl-1-(1-methylpiperidin-4-yl)-1H-pyrazolo[3,4-b]pyrazin-3-amine] | > 20000 nM | 14.4 nM | >1388
Cc1c(F)ccc2[nH]c(CNc3nn(C4CCN(C)CC4)c4nc(C5CC5)cnc34)nc12 [Example 26, 6-cyclopropyl-N-[(5-fluoro-4-methyl-1H-benzimidazol-2-yl)methyl]-1-(1-methylpiperidin-4-yl)-1H-pyrazolo[3,4-b]pyrazin-3-amine] | > 20000 nM | 16 nM | >509
CN1CCC(n2nc(NCc3nc4ccccc4[nH]3)c3ncc(C4CC4)nc32)C1 (racemic) [Example 35, (±)-N-[(1H-benzimidazol-2-yl)methyl]-6-cyclopropyl-1-(1-methylpyrrolidin-3-yl)-1H-pyrazolo[3,4-b]pyrazin-3-amine] | > 20000 nM | 19.1 nM | >1046
